Reference: article PMC8748916, “Microbial enzymes induce colitis by reactivating triclosan in the mouse gastrointestinal tract” (Nature Communications, 2022)
Several values for one entry are separate records, joined by “and”; a condition that tells them apart may be missing. Equal values may be shown once. Read-outs that look alike come from different tables or passages of the source.

Legend:
human fecal bacteria = test: Conversion of TCS-G to TCS by anaerobically cultured human fecal bacteria in vitro; format: in vitro ADME; conditions: from TCS-G, replicates
[1] = set-up: method as in earlier work; conditions: human, ref 32,33 (reply to reviewers), cited from earlier work
[2] = system: gut microbial β-glucuronidase (GUS) enzymes; test: In vitro UDH (coupled) assay of TCS-G cleavage by a panel of 32 purified GUS enzymes; format: biochemical
Rh3 GUS mutants = test: Catalytic efficiency assay, wild-type and mutant Rh3 GUS; format: biochemical, R. hominis; conditions: Fig. 3j, replicates 1-3
[3] = system: gut microbial β-glucuronidase (GUS) enzymes; test: Catalytic efficiency assay (HPLC) of TCS-G to TCS conversion by purified GUS enzymes; format: biochemical

## Oc1cc(Cl)ccc1Oc1ccc(Cl)cc1Cl [TCS, Triclosan]
Human fecal bacteria
  TCS formed: 10.13 pmol and 12.20 pmol and 15.57 pmol
[1]; after weeks of daily use of TCS-containing toothpaste
  plasma concentrations of TCS (TCS plus TCS-G): 90–1,000 nM
[1]; before use of TCS-containing toothpaste
  plasma concentrations of TCS (TCS plus TCS-G), baseline: 0.03 to 2.7 nM

## O=C(O)C1OC(Oc2cc(Cl)ccc2Oc2ccc(Cl)cc2Cl)C(O)C(O)C1O (centres unmarked) [TCS-G, triclosan-glucuronide]
[2]
  Rate: 0.1092 µM/s and 0.1031 µM/s and 0.1177 µM/s
[2]; GUS: Akkermansia muciniphila, Fig. 3a, replicates 1-3
  Rate: 0.0108 µM/s and 0.0181 µM/s and 0.0194 µM/s
[2]; GUS: Akkermansia sp. CAG:344, Fig. 3a, replicates 1-3
  Rate: 0.0157 µM/s and 0.0151 µM/s and 0.0237 µM/s
[2]; GUS: Bacteroides MSP (BMSP), Fig. 3a, replicates 1-3
  Rate: 0.0000 µM/s and 0.0073 µM/s and 0.0072 µM/s
[2]; GUS: Bacteroides coprocola CAG: 126, Fig. 3a, replicates 1-3
  Rate: 0.0000 uM/s (2×) and 0.0056 uM/s
[2]; GUS: Bacteroides dorei, Fig. 3a, replicates 1-3
  Rate: 0.0000 µM/s
[2]; GUS: Bacteroides fragillis (1, mini loop), Fig. 3a, replicates 1-3
  Rate: 0.0000 uM/s (2×) and 0.0043 uM/s
[2]; GUS: Bacteroides fragillis (2, No Loop), Fig. 3a, replicates 1-3
  Rate: 0.0228 µM/s and 0.0242 µM/s and 0.0201 µM/s
[2]; GUS: Bacteroides ovatus 1 (Double mini loop), Fig. 3a, replicates 1-3
  Rate: 0.0000 µM/s and 0.0060 µM/s and 0.0033 µM/s
[2]; GUS: Bacteroides ovatus 2 (loop 2), Fig. 3a, replicates 1-3
  Rate: 0.0287 µM/s and 0.0311 µM/s and 0.0066 µM/s
[2]; GUS: Bacteroides uniformis 1, Fig. 3a, replicates 1-3
  Rate: 0.0000 µM/s
[2]; GUS: Bacteroides uniformis 2, Fig. 3a, replicates 1-3
  Rate: 0.0217 µM/s and 0.0464 µM/s and 0.0098 µM/s
[2]; GUS: Bacteroides uniformis 3, Fig. 3a, replicates 1-3
  Rate: 0.0000 µM/s
[2]; GUS: Clostridiales sp., Fig. 3a, replicates 1-3
  Rate: 0.2137 µM/s and 0.2298 µM/s and 0.2970 µM/s
[2]; GUS: Escherichia coli, Fig. 3a, replicates 1-3
  Rate: 0.0775 µM/s and 0.0865 µM/s and 0.0858 µM/s
[2]; GUS: Eubacterium eligens, Fig. 3a, replicates 1-3
  Rate: 0.1302 µM/s and 0.1403 µM/s and 0.1746 µM/s
[2]; GUS: Eubacterium sp. CAG: 76, Fig. 3a, replicates 1-3
  Rate: 0.2371 µM/s and 0.2156 µM/s and 0.2776 µM/s
[2]; GUS: Faecalibacterium prausnitzii 2-L1, Fig. 3a, replicates 1-3
  Rate: 0.4231 µM/s and 0.3684 µM/s and 0.3821 µM/s
[2]; GUS: Faecalibacterium prausnitzii L2-6, Fig. 3a, replicates 1-3
  Rate: 0.2237 µM/s and 0.2529 µM/s and 0.1639 µM/s
[2]; GUS: Faecalibacterium prausnitzii, Fig. 3a, replicates 1-3
  Rate: 0.1749 µM/s and 0.1228 µM/s and 0.2576 µM/s
[2]; GUS: Fusicatenibacter saccharivorans, Fig. 3a, replicates 1-3
  Rate: 0.0089 µM/s and 0.0000 µM/s and 0.0052 µM/s
[2]; GUS: H11G11, Fig. 3a, replicates 1-3
  Rate: 0.0684 µM/s and 0.0777 µM/s and 0.0864 µM/s
[2]; GUS: Lactobacillus rhamnosus, Fig. 3a, replicates 1-3
  Rate: 0.0323 µM/s and 0.1224 µM/s and 0.1254 µM/s
[2]; GUS: Parabacteroides merdea, Fig. 3a, replicates 1-3
  Rate: 0.0043 µM/s and 0.0011 µM/s and 0.0000 µM/s
[2]; GUS: Roseburia hominis 2, Fig. 3a, replicates 1-3
  Rate: 0.0519 µM/s and 0.0527 µM/s and 0.0448 µM/s
[2]; GUS: Roseburia hominis 3, Fig. 3a, replicates 1-3
  Rate: 0.4975 µM/s and 0.4668 µM/s and 0.4395 µM/s
[2]; GUS: Roseburia hominis, Fig. 3a, replicates 1-3
  Rate: 0.0330 µM/s and 0.0266 µM/s and 0.0438 µM/s
[2]; GUS: Roseburia intestinalis, Fig. 3a, replicates 1-3
  Rate: 0.0269 µM/s and 0.0251 µM/s and 0.0293 µM/s
[2]; GUS: Roseburia inulinvorans, Fig. 3a, replicates 1-3
  Rate: 0.1707 µM/s and 0.1889 µM/s and 0.1974 µM/s
[2]; GUS: Ruminoccus gnavus 1, Fig. 3a, replicates 1-3
  Rate: 0.0272 µM/s and 0.0287 µM/s and 0.0319 µM/s
[2]; GUS: Ruminoccus gnavus 3, Fig. 3a, replicates 1-3
  Rate: 0.1417 µM/s and 0.1517 µM/s and 0.1712 µM/s
[2]; GUS: Streptococcus agalactiae, Fig. 3a, replicates 1-3
  Rate: 0.0757 µM/s and 0.0745 µM/s and 0.0702 µM/s
Rh3 GUS mutants; Enzyme: Rh3 F406A
  Catalytic efficiency: 147440 M⁻¹ s⁻¹ and 148640 M⁻¹ s⁻¹ and 151680 M⁻¹ s⁻¹
Rh3 GUS mutants; Enzyme: Rh3 L635STOP
  Catalytic efficiency: 0 M⁻¹ s⁻¹
Rh3 GUS mutants; Enzyme: Rh3 Y430A
  Catalytic efficiency: 0 M⁻¹ s⁻¹
[3]
  Catalytic efficiency: 221350 M⁻¹ s⁻¹ and 261200 M⁻¹ s⁻¹ and 185500 M⁻¹ s⁻¹
[3]; Enzyme: B. uniformis 2, Fig. 3b, replicates 1-3
  Catalytic efficiency: 26480 M⁻¹ s⁻¹ and 25620 M⁻¹ s⁻¹ and 34030 M⁻¹ s⁻¹
[3]; Enzyme: Clostridiales sp., Fig. 3b, replicates 1-3
  Catalytic efficiency: 421200 M⁻¹ s⁻¹ and 564000 M⁻¹ s⁻¹ and 643571 M⁻¹ s⁻¹
[3]; Enzyme: E. coli, Fig. 3b, replicates 1-3
  Catalytic efficiency: 25610 M⁻¹ s⁻¹ and 27630 M⁻¹ s⁻¹ and 30620 M⁻¹ s⁻¹
[3]; Enzyme: E. eligens, Fig. 3b, replicates 1-3
  Catalytic efficiency: 789000 M⁻¹ s⁻¹ and 987900 M⁻¹ s⁻¹ and 767700 M⁻¹ s⁻¹
[3]; Enzyme: Eubacterium sp. CAG: 76, Fig. 3b, replicates 1-3
  Catalytic efficiency: 294800 M⁻¹ s⁻¹ and 499700 M⁻¹ s⁻¹ and 451000 M⁻¹ s⁻¹
[3]; Enzyme: F. prausnitzii 2-L1, Fig. 3b, replicates 1-3
  Catalytic efficiency: 876200 M⁻¹ s⁻¹ and 975000 M⁻¹ s⁻¹ and 757000 M⁻¹ s⁻¹
[3]; Enzyme: F. prausnitzii, Fig. 3b, replicates 1-3
  Catalytic efficiency: 373850 M⁻¹ s⁻¹ and 362000 M⁻¹ s⁻¹ and 260800 M⁻¹ s⁻¹
[3]; Enzyme: R. gnavus 3, Fig. 3b, replicates 1-3
  Catalytic efficiency: 816300 M⁻¹ s⁻¹ and 891300 M⁻¹ s⁻¹ and 748300 M⁻¹ s⁻¹
[3]; Enzyme: R. hominis 2, Fig. 3b, replicates 1-3
  Catalytic efficiency: 168600 M⁻¹ s⁻¹ and 249500 M⁻¹ s⁻¹ and 277800 M⁻¹ s⁻¹
[3]; Enzyme: R. hominis 3, Fig. 3b, replicates 1-3
  Catalytic efficiency: 801500 M⁻¹ s⁻¹ and 763200 M⁻¹ s⁻¹ and 1075600 M⁻¹ s⁻¹
[3]; Enzyme: R. inulinvorans, Fig. 3b, replicates 1-3
  Catalytic efficiency: 450800 M⁻¹ s⁻¹ and 617200 M⁻¹ s⁻¹ and 689000 M⁻¹ s⁻¹
